According to US20130065818A1, “Arylamide Compounds And Compositions And Uses Thereof” (POLYMEDIX, priority 2006, published 2013):
≈ marks a conversion by molar mass, not a printed value. Where “and” joins values, the source holds several entries; their conditions need not be identical. Equal entries are not always repeated. Where two headings read alike, the source gives them in different places.

What was measured:
Type in all cases: cell-based
[1] = test system: K. pneumoniae Lab Strain KP10; assay: MIC, laboratory strains (Example 8)
[2] = test system: Staphylococcus aureus fluoroquinolone-susceptible; assay: MIC, 25 ocular isolates, broth microdilution (Example 8)
Experimental: • Mueller-Hinton Broth in tubes was inoculated with 25 ocular isolates of Staphylococcus aureus fluoroquinolone-susceptible, Staphylococcus aureus fluoroquinolone-resistant, Staphylococcus epidermidis (Coagulase-negative Staphylococcus) fluoroquinolone-susceptible, Staphylococcus epidermidis (Coagulase-negative Staphylococcus) fluoroquinolone-resistant, Pseudomonas aeruginosa and Serratia marcescens, plus two controls (Staphylococcus aureus and E. coli) and incubated at 37° C. overnight on a shaker set at 250 rpm.
On the day of testing, a 640 μg/ml (1280 μg/ml for Serratia marcescens and Pseudomonas aeruginosa) concentration was prepared from a 1% stock solution in 0.01% acetic acid, 0.2% BSA in polypropylene tubes.
Serial doubling dilutions in 0.01% acetic acid, 0.2% BSA in 96 well polypropylene plates, which are used as reservoirs for the inoculation of the test plates, were carried out to obtain serial dilutions of test agents at 10 times the required test concentrations: 640, 320, 160, 80, 40, 20, 10, 5, 2.5, 1.25, and 0.625 μg/ml (1280, 640, 320, 160, 80, 40, 20, 10, 5, 2.5, and 1.25 μg/ml for Serratia marcescens and Pseudomonas aeruginosa).
Ten μl of diluted 10×test agents was added to each well of one row of the 96 well polypropylene plates from column 2 to column 12 (column 1 is a control for bacteria alone, with no peptide). Test agent concentrations in columns 2-12 were as follows: 64, 32, 16, 8, 4, 2, 1, 0.5, 0.25, 0.125, and 0.0625 μg/ml (128, 64, 32, 16, 8, 4, 2, 1, 0.5, 0.25, and 0.125 μg/ml for Serratia marcescens and Pseudomonas aeruginosa). The same peptide was in each of the 8 rows. One plate contained dilutions of one test agent and 8 bacterial isolates.
On the day of testing, the overnight bacterial broth cultures of Staphylococcus aureus fluoroquinolone-susceptible, Staphylococcus aureus fluoroquinolone-resistant, Staphylococcus epidermidis (Coagulase-negative Staphylococcus) fluoroquinolone-susceptible, Staphylococcus epidermidis (Coagulase-negative Staphylococcus) fluoroquinolone-resistant, Serratia marcescens, and Pseudomonas aeruginosa, plus two controls (Staphylococcus aureus and E. coli) were diluted in 5 ml of trypticase soy broth to yield turbidity equal to a 0.5 McFarland standard. The final inoculum for MIC testing for Staphylococcus aureus fluoroquinolone-susceptible, Staphylococcus aureus fluoroquinolone-resistant, Staphylococcus epidermidis (Coagulase-negative Staphylococcus) fluoroquinolone-susceptible, Staphylococcus epidermidis (Coagulase-negative Staphylococcus) fluoroquinolone-resistant, Serratia marcescens, and Pseudomonas aeruginosa was achieved by placing 0.05 ml of the turbidity adjusted sample to 5 ml of Mueller-Hinton broth.
Ninety μl of the bacterial suspensions was dispensed in each well from column 1 to column 12. Each bacterial isolate was placed in one row of a 96 well polypropylene plate containing the test agents. The plates were placed on shaker at 15 minutes at room temperature, and then incubated at 37° C. overnight. MICs were determined visually as the lowest concentration of drug that inhibits visible bacterial growth.

[3] = test system: Serratia marcescens; assay: as above
[4] = test system: Fluoroquinolone-Resistant Methicillin-Resistant Staphylococcus aureus Strain K950; assay: MIC characterization of strain K950; settings: read-out: MIC (Minimum Inhibitory Concentration)
[5] = test system: P. aeruginosa ATCC 10145; assay: MIC, laboratory strains (Example 8)

In the case of `N=C(N)NCCCCC(=O)Nc1cc(C(F)(F)F)cc(NC(=O)c2cc(C(=O)Nc3cc(C(F)(F)F)cc(NC(=O)CCCCNC(=N)N)c3O[C@@H]3CCNC3)ncn2)c1O[C@@H]1CCNC1` [Oligomer 4], the MIC [1] is reported as 0.78 µg/mL (≈ 0.833 µM), the “MIC, sorted list for MIC50 and MIC90 Determinations (QSSA-A)” value ([2]; 25 isolates sorted ascending, Row 1-25, in µg/mL) is reported as 0.250 and 0.500 and the MIC50 ([2]; 25 isolates, Row 13) is reported as 0.25 µg/mL (≈ 0.267 µM). For the same compound, the MIC90 ([2]; 25 isolates, Row 22) was 0.5 µg/mL (≈ 0.534 µM), the “Range of MICs” value ([2]; 25 isolates, Summary of Results) was 0.125 to 0.5 µg/mL and the MIC ([2]; Staphylococcus aureus, 25 ocular isolates, read-out: Median MIC) was ≤ 0.25 µg/mL. For the same compound, the MIC ([2]; Staphylococcus aureus, isolate 1—E402, read-out: MIC) was 0.25 µg/mL (≈ 0.267 µM), the MIC ([2]; Staphylococcus aureus, isolate 2—E1512, read-out: MIC) was 0.25 µg/mL (≈ 0.267 µM) and the MIC ([2]; Staphylococcus aureus, isolate 3—E253, read-out: MIC) was 0.25 µg/mL (≈ 0.267 µM). It also gave an MIC ([2]; Staphylococcus aureus, isolate 4—K1518, read-out: MIC) of 0.25 µg/mL (≈ 0.267 µM), an MIC ([2]; Staphylococcus aureus, isolate 5—K1525, read-out: MIC) of 0.125 µg/mL (≈ 0.133 µM) and an MIC ([2]; Staphylococcus aureus, isolate 6—K1663, read-out: MIC) of 0.5 µg/mL (≈ 0.534 µM). For the same compound, the MIC ([2]; Staphylococcus aureus, isolate 7—K1648, read-out: MIC) was 0.25 µg/mL (≈ 0.267 µM), the MIC ([2]; Staphylococcus aureus, isolate 8—K1646, read-out: MIC) was 0.25 µg/mL (≈ 0.267 µM) and the MIC ([2]; Staphylococcus aureus, isolate 9—K1642, read-out: MIC) was 0.5 µg/mL (≈ 0.534 µM). For the same compound, the MIC ([2]; Staphylococcus aureus, isolate 10—K1638, read-out: MIC) was 0.5 µg/mL (≈ 0.534 µM), the MIC ([2]; Staphylococcus aureus, isolate 11—K1628, read-out: MIC) was 0.25 µg/mL (≈ 0.267 µM) and the MIC ([2]; Staphylococcus aureus, isolate 12—K1618, read-out: MIC) was 0.5 µg/mL (≈ 0.534 µM). For the same compound, the MIC ([2]; Staphylococcus aureus, isolate 13—K1617, read-out: MIC) was 0.25 µg/mL (≈ 0.267 µM), the MIC ([2]; Staphylococcus aureus, isolate 14—K1611, read-out: MIC) was 0.25 µg/mL (≈ 0.267 µM) and the MIC ([2]; Staphylococcus aureus, isolate 15—K1607, read-out: MIC) was 0.25 µg/mL (≈ 0.267 µM). The MIC ([2]; Staphylococcus aureus, isolate 16—K1600, read-out: MIC) was 0.25 µg/mL (≈ 0.267 µM), the MIC ([2]; Staphylococcus aureus, isolate 17—K1591, read-out: MIC) was 0.25 µg/mL (≈ 0.267 µM) and the MIC ([2]; Staphylococcus aureus, isolate 18—K1585, read-out: MIC) was 0.25 µg/mL (≈ 0.267 µM). It also gave an MIC ([2]; Staphylococcus aureus, isolate 19—K1583, read-out: MIC) of 0.25 µg/mL (≈ 0.267 µM), an MIC ([2]; Staphylococcus aureus, isolate 20—K1574, read-out: MIC) of 0.25 µg/mL (≈ 0.267 µM) and an MIC ([2]; Staphylococcus aureus, isolate 21—K1566, read-out: MIC) of 0.25 µg/mL (≈ 0.267 µM). The MIC ([2]; Staphylococcus aureus, isolate 22—K1551, read-out: MIC) was 0.25 µg/mL (≈ 0.267 µM), the MIC ([2]; Staphylococcus aureus, isolate 23—K1545, read-out: MIC) was 0.25 µg/mL (≈ 0.267 µM) and the MIC ([2]; Staphylococcus aureus, isolate 24—K1540, read-out: MIC) was 0.25 µg/mL (≈ 0.267 µM). It also gave an MIC ([2]; Staphylococcus aureus, isolate 25—K1530, read-out: MIC) of 0.25 µg/mL (≈ 0.267 µM), an MIC ([2]; Staphylococcus aureus, n=25 per group, read-out: Median MIC) of 0.25 µg/mL (≈ 0.267 µM) and an MIC50 ([2]; Staphylococcus aureus, 25 isolates, Summary of Results, read-out: MIC50) of 0.25 µg/mL (≈ 0.267 µM). For the same compound, the MIC90 ([2]; Staphylococcus aureus, 25 isolates, Summary of Results, read-out: MIC90) was 0.25 µg/mL (≈ 0.267 µM), the MIC ([2]; Staphylococcus aureus, 25 isolates, Summary of Results, read-out: Median MIC) was 0.25 µg/mL (≈ 0.267 µM) and the MIC50 ([2]; n=25 per group) was 0.25 µg/mL (≈ 0.267 µM). The MIC90 ([2]; n=25 per group) was 0.25 µg/mL (≈ 0.267 µM), the “Range of MICs” value ([2]; n=25 per group) was 0.125 to 0.5 µg/mL and the MIC50 ([3]; 25 isolates, Row 13, >128 was Replaced with 256) was 8 µg/mL (≈ 8.54 µM). The MIC90 ([3]; 25 isolates, Row 22, >128 was Replaced with 256) was 32 µg/mL (≈ 34.2 µM), the “Range of MICs” value ([3]; 25 isolates, Summary of Results, >128 was Replaced with 256) was 0.25 to 32 µg/mL and the MIC ([3]; Serratia marcescens, 25 ocular isolates, read-out: Median MIC) was 8 µg/mL (≈ 8.54 µM). It also gave an MIC ([3]; Serratia marcescens, isolate 1—K1681, read-out: MIC) of 32 µg/mL (≈ 34.2 µM), an MIC ([3]; Serratia marcescens, isolate 2—K1674, read-out: MIC) of 32 µg/mL (≈ 34.2 µM) and an MIC ([3]; Serratia marcescens, isolate 3—K1558, read-out: MIC) of 4 µg/mL (≈ 4.27 µM). The MIC ([3]; Serratia marcescens, isolate 4—K1538, read-out: MIC) was 16 µg/mL (≈ 17.1 µM), the MIC ([3]; Serratia marcescens, isolate 5—K1503, read-out: MIC) was 32 µg/mL (≈ 34.2 µM) and the MIC ([3]; Serratia marcescens, isolate 6—K1216, read-out: MIC) was 4 µg/mL (≈ 4.27 µM). For the same compound, the MIC ([3]; Serratia marcescens, isolate 7—K1496, read-out: MIC) was 8 µg/mL (≈ 8.54 µM), the MIC ([3]; Serratia marcescens, isolate 8—K1481, read-out: MIC) was 2 µg/mL (≈ 2.13 µM) and the MIC ([3]; Serratia marcescens, isolate 9—K1470, read-out: MIC) was 32 µg/mL (≈ 34.2 µM). For the same compound, the MIC ([3]; Serratia marcescens, isolate 10—K1468, read-out: MIC) was 2 µg/mL (≈ 2.13 µM), the MIC ([3]; Serratia marcescens, isolate 11—K1467, read-out: MIC) was 32 µg/mL (≈ 34.2 µM) and the MIC ([3]; Serratia marcescens, isolate 12—K1462, read-out: MIC) was 16 µg/mL (≈ 17.1 µM). It also gave an MIC ([3]; Serratia marcescens, isolate 13—K1461, read-out: MIC) of 8 µg/mL (≈ 8.54 µM), an MIC ([3]; Serratia marcescens, isolate 14—K1413, read-out: MIC) of 16 µg/mL (≈ 17.1 µM) and an MIC ([3]; Serratia marcescens, isolate 15—K1402, read-out: MIC) of 0.25 µg/mL (≈ 0.267 µM). For the same compound, the MIC ([3]; Serratia marcescens, isolate 16—K1357, read-out: MIC) was 1 µg/mL (≈ 1.07 µM), the MIC ([3]; Serratia marcescens, isolate 17—K1351, read-out: MIC) was 0.5 µg/mL (≈ 0.534 µM) and the MIC ([3]; Serratia marcescens, isolate 18—K1327, read-out: MIC) was 8 µg/mL (≈ 8.54 µM). It also gave an MIC ([3]; Serratia marcescens, isolate 19—K1321, read-out: MIC) of 8 µg/mL (≈ 8.54 µM), an MIC ([3]; Serratia marcescens, isolate 20—K1315, read-out: MIC) of 16 µg/mL (≈ 17.1 µM) and an MIC ([3]; Serratia marcescens, isolate 21—K1306, read-out: MIC) of 8 µg/mL (≈ 8.54 µM). For the same compound, the MIC ([3]; Serratia marcescens, isolate 22—K1290, read-out: MIC) was 8 µg/mL (≈ 8.54 µM), the MIC ([3]; Serratia marcescens, isolate 23—K1265, read-out: MIC) was 8 µg/mL (≈ 8.54 µM) and the MIC ([3]; Serratia marcescens, isolate 24—K1263, read-out: MIC) was 8 µg/mL (≈ 8.54 µM). The MIC ([3]; Serratia marcescens, isolate 25—K1239, read-out: MIC) was 8 µg/mL (≈ 8.54 µM), the MIC ([3]; Serratia marcescens, n=25 per group, read-out: Median MIC) was 8 µg/mL (≈ 8.54 µM) and the MIC50 ([3]; Serratia marcescens, 25 isolates, Summary of Results, >128 was Replaced with 256, read-out: MIC50) was 8 µg/mL (≈ 8.54 µM). The MIC90 ([3]; Serratia marcescens, 25 isolates, Summary of Results, >128 was Replaced with 256, read-out: MIC90) was 32 µg/mL (≈ 34.2 µM), the MIC ([3]; Serratia marcescens, 25 isolates, Summary of Results, >128 was Replaced with 256, read-out: Median MIC) was 8 µg/mL (≈ 8.54 µM) and the MIC50 ([3]; n=25 per group) was 8 µg/mL (≈ 8.54 µM). For the same compound, the MIC90 ([3]; n=25 per group) was 32 µg/mL (≈ 34.2 µM), the “Range of MICs” value ([3]; n=25 per group) was 0.25 to 32 µg/mL and the MIC [4] was 0.5 µg/mL (≈ 0.534 µM). For the same compound, the MIC [5] was 12.5 µg/mL (≈ 13.3 µM).
